Activity calls are given as the source filed them.
What was measured:
[1] = molecular target: T1, High affinity choline transporter 1 (Homo sapiens, UniProt Q9GZV3); test: CHT activators, dose response, cell-based, 10-point CRC, membrane potential dye (AID 602376); assay type: functional
T1 sequence (Q9GZV3 whole entry): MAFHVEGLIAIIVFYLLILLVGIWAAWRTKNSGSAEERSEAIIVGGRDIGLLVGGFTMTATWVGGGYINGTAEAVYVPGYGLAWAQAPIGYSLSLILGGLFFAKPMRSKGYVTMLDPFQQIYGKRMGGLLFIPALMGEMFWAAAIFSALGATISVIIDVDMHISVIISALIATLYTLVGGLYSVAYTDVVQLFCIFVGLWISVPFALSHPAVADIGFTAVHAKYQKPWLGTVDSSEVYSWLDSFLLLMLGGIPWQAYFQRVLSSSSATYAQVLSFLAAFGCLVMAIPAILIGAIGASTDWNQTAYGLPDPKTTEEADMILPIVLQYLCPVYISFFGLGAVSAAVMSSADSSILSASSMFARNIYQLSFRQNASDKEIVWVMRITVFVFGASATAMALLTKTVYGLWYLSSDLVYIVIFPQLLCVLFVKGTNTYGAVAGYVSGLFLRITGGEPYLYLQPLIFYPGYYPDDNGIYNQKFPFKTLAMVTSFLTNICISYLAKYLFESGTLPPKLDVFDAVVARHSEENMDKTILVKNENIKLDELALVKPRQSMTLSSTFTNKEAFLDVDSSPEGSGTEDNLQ

[2] = molecular target: Multidrug resistance protein CDR1 (Candida albicans, UniProt P43071); test: CaCDR1 efflux pump inhibitors in yeast, dose response, S. cerevisiae AD1-8u, singleplex, Cherry Pick1 hits (AID 588606); assay type: functional
Aspartyl aminopeptidase = Aspartyl aminopeptidase (Plasmodium falciparum 3D7, UniProt Q8I2J3)
Procathepsin L = Procathepsin L (Homo sapiens, UniProt P07711)
NIH3T3 = test: mammalian cell toxicity in NIH-3T3 fibroblasts, dose response, cytotoxicity control for antifungal resistance reversal project, Alamar Blue, dry powder, set 2 (AID 488911); assay type: functional, cell-based; conditions: Mus musculus
Candida albicans = test: growth inhibition of azole-resistant C. albicans, dose response, CaCi-8 strain, Alamar Blue, dry powder, set 2 (AID 488909); assay type: functional, organism-based
[3] = molecular target: T2, Sentrin-specific protease 8 (Homo sapiens, UniProt Q96LD8); test: SENP8 protease inhibitors, SAR follow-up, biochemical, luminescence (AID 504501); assay type: functional
T2 sequence (Q96LD8 whole entry): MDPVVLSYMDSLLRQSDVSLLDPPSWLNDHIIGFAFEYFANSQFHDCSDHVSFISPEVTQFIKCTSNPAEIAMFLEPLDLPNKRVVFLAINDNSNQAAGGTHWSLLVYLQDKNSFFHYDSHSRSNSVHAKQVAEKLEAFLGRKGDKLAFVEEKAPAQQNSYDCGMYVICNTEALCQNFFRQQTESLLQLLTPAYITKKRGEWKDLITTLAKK

[4] = molecular target: T3, Sentrin-specific protease 7 (Homo sapiens, UniProt Q9BQF6); test: SENP7 protease inhibitors, SAR follow-up, biochemical, luminescence (AID 504497); assay type: functional
T3 sequence (Q9BQF6 whole entry): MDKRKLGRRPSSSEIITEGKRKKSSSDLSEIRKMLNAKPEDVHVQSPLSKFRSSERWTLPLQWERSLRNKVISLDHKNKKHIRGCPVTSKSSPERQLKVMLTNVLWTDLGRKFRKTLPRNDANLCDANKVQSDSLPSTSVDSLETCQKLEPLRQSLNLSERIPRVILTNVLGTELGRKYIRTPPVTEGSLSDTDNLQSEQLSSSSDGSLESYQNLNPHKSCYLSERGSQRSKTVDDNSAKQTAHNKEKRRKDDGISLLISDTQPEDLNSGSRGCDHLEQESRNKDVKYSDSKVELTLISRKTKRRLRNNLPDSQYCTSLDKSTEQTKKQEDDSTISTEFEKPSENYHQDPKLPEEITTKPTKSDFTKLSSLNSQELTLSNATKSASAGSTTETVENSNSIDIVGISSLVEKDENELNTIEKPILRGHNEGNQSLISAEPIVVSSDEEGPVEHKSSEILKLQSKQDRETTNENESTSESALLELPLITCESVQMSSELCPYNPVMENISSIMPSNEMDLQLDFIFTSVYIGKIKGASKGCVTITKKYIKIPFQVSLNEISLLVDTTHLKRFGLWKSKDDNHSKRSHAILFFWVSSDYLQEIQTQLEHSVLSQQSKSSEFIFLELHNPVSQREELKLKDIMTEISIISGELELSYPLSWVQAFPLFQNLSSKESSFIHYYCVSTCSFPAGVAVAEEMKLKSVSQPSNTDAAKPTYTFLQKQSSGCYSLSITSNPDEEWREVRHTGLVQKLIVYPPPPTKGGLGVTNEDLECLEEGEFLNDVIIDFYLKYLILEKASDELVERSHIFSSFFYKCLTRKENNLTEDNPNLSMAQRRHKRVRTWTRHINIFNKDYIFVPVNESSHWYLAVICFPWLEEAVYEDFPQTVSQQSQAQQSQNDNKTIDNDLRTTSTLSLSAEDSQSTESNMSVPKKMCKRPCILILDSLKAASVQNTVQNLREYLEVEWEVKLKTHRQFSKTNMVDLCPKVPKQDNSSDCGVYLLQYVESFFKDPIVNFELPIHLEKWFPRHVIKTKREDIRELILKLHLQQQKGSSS

Caspase-3 [5] = molecular target: T4, Caspase-3 (Homo sapiens, UniProt P42574); test: SAR Analysis of small molecule inhibitors of Sentrin-specific proteases (SENPs) using a Caspase-3 Selectivity assay. [Related pubchem assays (depositor defined):AID2540, AID2599, AID434973, AID489001]; assay type: functional
T4 sequence (P42574 whole entry): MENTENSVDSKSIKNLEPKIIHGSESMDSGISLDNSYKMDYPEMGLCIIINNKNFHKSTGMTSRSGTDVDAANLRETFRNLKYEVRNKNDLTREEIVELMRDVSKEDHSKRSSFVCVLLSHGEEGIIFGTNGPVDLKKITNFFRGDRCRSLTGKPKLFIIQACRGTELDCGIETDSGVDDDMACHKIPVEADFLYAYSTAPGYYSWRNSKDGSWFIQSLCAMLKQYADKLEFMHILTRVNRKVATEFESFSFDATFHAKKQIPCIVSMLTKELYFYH

[6] = molecular target: T5, Sentrin-specific protease 6 (Homo sapiens, UniProt Q9GZR1); test: SAR Analysis of small molecule inhibitors of Sentrin-specific protease 6 (SENP6) using a Luminescent assay. [Related pubchem assays (depositor defined):AID2582, AID2599]; assay type: functional
T5 sequence (Q9GZR1 whole entry): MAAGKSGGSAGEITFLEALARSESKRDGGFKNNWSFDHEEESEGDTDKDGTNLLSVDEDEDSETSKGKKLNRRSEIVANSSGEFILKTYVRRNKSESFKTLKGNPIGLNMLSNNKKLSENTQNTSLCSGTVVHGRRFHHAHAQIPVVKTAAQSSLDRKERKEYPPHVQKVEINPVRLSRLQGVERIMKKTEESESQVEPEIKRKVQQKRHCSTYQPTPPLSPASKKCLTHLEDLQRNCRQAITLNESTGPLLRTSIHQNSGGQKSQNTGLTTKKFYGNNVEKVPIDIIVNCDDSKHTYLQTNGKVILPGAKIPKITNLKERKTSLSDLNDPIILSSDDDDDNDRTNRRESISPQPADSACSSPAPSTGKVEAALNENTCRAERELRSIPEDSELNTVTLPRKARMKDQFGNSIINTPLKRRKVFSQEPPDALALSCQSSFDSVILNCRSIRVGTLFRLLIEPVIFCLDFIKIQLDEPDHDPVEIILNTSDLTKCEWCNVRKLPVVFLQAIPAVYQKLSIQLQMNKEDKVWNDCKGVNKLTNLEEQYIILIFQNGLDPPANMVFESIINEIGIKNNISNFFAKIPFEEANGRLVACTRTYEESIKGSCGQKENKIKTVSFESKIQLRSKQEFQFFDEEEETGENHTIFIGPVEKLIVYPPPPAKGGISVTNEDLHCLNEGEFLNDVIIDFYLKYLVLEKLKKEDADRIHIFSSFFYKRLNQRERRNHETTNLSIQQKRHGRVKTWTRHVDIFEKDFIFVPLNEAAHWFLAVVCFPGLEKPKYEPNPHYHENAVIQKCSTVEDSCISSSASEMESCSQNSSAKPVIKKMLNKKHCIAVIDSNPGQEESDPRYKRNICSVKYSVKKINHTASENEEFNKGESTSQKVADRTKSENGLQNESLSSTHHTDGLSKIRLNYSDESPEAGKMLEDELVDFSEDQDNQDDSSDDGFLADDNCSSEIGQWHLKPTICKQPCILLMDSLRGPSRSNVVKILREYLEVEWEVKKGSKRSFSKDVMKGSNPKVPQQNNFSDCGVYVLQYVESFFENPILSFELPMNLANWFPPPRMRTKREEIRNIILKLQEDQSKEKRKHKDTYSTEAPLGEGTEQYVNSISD

[7] = molecular target: T2, Sentrin-specific protease 8; test: SENP8 protease inhibitors, SAR follow-up, biochemical, luminescence, set 2 (AID 588601); assay type: functional
[8] = molecular target: T3, Sentrin-specific protease 7; test: SENP7 protease inhibitors, SAR follow-up, biochemical, luminescence, set 2 (AID 588600); assay type: functional
[9] = molecular target: T5, Sentrin-specific protease 6; test: SENP6 protease inhibitors, SAR follow-up, biochemical, luminescence, set 2 (AID 588598); assay type: functional
Caspase-3 [10] = molecular target: T4, Caspase-3; test: caspase-3 inhibitors as off-family protease, SAR follow-up, selectivity assay for SENP protease inhibitor project, biochemical, luminescence, set 2 (AID 588599); assay type: functional
[11] = molecular target: Casein kinase I isoform alpha (Homo sapiens, UniProt P48729); assay type: functional
[12] = molecular target: Dual specificity tyrosine-phosphorylation-regulated kinase 1B (Homo sapiens, UniProt Q9Y463); test: Navigating the Kinome. Panel member name: DYRK1B; assay type: functional
[13] = molecular target: Tyrosine-protein kinase receptor TYRO3 (Homo sapiens, UniProt Q06418); assay type: functional;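 also: TYRO3 value obtained as one member of a kinome-wide profiling panel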
[14] = molecular target: Insulin-like growth factor 1 receptor (Homo sapiens, UniProt P08069); test: Navigating the Kinome. Panel member name: IGF1R; assay type: functional
Activin receptor type-1 = Activin receptor type-1 (Homo sapiens, UniProt Q04771); test: Navigating the Kinome. Panel member name: ACVR1; assay type: functional
[15] = molecular target: Tyrosine-protein kinase ABL1 (Homo sapiens, UniProt P00519); assay type: functional
Tyrosine-protein kinase ABL1, sequence (P00519 whole entry): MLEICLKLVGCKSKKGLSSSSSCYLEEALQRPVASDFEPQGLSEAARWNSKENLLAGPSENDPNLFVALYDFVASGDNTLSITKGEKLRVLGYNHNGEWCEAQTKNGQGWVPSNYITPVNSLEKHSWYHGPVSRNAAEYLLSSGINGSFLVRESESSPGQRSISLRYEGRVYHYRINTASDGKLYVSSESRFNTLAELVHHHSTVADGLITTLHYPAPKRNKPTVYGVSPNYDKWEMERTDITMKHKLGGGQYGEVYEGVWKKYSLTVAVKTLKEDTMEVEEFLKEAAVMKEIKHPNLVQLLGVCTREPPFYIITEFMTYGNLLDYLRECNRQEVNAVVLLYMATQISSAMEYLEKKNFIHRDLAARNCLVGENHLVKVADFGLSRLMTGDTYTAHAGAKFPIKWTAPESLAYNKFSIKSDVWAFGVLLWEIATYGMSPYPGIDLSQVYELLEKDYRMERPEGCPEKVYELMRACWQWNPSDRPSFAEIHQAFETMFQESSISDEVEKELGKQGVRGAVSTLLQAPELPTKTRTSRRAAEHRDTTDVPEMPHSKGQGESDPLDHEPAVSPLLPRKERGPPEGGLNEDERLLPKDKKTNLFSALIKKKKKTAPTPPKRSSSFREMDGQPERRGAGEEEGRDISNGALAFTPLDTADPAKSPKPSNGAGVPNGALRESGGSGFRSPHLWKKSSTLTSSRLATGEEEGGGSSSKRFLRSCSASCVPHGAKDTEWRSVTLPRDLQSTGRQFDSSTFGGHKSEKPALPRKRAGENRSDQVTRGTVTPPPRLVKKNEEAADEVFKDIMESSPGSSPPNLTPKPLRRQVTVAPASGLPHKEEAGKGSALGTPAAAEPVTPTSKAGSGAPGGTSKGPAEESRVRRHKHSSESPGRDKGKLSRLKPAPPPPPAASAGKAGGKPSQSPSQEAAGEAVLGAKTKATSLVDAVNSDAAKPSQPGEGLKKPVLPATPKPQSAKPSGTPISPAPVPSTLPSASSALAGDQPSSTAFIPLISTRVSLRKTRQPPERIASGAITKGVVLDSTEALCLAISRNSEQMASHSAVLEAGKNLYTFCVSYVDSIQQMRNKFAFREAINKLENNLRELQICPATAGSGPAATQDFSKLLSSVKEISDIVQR

Dual specificity tyrosine-phosphorylation-regulated kinase 1B, sequence (Q9Y463 whole entry): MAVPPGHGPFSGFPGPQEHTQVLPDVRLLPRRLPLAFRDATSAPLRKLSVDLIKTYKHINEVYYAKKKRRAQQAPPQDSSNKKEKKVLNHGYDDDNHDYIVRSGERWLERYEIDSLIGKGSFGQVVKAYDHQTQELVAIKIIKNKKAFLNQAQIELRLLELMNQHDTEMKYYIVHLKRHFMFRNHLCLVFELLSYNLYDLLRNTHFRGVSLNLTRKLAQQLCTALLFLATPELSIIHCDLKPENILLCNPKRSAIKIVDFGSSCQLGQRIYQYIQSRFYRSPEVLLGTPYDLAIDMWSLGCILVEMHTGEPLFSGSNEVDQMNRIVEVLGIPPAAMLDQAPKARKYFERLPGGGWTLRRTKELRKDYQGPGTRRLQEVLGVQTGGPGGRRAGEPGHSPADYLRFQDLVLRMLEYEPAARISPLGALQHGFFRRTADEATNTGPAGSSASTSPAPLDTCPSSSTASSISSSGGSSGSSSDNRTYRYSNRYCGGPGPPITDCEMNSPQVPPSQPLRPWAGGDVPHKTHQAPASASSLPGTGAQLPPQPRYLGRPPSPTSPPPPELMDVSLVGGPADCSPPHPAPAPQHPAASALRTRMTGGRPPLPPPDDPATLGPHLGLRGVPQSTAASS
Tyrosine-protein kinase receptor TYRO3, sequence (Q06418 whole entry): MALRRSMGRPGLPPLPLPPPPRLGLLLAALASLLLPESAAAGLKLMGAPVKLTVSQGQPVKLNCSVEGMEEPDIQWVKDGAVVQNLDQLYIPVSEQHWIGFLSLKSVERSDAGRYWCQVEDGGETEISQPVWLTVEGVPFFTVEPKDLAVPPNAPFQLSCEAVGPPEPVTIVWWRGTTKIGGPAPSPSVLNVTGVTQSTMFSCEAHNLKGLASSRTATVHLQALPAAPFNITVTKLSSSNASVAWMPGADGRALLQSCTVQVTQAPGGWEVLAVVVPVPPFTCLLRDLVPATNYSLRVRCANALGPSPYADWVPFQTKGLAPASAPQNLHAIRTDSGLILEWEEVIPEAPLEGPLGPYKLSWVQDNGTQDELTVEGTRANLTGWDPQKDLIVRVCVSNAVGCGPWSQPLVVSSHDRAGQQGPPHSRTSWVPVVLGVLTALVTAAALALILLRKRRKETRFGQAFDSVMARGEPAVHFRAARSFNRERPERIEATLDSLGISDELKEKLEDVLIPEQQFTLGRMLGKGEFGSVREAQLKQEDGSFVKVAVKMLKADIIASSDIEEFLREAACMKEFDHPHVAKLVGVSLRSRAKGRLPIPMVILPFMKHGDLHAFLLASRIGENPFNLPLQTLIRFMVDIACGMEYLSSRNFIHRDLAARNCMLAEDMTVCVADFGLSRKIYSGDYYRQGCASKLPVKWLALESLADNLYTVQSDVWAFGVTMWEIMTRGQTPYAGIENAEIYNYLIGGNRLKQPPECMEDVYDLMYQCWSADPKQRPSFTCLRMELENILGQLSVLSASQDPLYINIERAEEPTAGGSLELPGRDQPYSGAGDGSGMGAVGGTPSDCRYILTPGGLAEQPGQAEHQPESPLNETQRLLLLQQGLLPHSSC
Procathepsin L, sequence (P07711 whole entry): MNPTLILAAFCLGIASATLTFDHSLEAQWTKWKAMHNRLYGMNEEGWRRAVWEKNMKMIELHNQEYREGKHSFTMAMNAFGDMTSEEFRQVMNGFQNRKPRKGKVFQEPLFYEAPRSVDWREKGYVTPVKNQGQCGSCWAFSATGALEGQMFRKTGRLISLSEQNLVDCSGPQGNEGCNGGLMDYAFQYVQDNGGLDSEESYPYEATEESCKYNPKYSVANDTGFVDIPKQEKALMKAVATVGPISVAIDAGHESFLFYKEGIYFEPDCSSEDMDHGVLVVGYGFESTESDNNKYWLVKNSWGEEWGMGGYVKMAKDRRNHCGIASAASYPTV
Insulin-like growth factor 1 receptor, sequence (P08069 31-736 limits assumed): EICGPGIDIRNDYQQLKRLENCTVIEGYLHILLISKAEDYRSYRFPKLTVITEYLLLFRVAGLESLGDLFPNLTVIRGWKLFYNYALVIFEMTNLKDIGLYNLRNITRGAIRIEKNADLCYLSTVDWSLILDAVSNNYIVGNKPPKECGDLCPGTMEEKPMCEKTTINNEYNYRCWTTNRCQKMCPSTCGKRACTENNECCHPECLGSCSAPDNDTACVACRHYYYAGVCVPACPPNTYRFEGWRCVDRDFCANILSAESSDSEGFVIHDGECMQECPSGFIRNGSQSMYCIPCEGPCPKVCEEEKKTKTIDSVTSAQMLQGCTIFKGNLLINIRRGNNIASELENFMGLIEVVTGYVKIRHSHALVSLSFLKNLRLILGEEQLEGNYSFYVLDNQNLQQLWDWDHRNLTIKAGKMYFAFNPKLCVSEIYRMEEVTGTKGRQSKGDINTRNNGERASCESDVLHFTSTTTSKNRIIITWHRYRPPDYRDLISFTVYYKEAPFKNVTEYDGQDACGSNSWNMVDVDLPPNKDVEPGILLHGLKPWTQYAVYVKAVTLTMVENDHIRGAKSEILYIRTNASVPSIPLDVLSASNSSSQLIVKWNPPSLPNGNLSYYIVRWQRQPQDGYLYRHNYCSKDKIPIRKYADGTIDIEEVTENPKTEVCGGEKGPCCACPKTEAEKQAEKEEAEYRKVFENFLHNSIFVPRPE
Insulin-like growth factor 1 receptor, sequence (P08069 741-1367 limits assumed): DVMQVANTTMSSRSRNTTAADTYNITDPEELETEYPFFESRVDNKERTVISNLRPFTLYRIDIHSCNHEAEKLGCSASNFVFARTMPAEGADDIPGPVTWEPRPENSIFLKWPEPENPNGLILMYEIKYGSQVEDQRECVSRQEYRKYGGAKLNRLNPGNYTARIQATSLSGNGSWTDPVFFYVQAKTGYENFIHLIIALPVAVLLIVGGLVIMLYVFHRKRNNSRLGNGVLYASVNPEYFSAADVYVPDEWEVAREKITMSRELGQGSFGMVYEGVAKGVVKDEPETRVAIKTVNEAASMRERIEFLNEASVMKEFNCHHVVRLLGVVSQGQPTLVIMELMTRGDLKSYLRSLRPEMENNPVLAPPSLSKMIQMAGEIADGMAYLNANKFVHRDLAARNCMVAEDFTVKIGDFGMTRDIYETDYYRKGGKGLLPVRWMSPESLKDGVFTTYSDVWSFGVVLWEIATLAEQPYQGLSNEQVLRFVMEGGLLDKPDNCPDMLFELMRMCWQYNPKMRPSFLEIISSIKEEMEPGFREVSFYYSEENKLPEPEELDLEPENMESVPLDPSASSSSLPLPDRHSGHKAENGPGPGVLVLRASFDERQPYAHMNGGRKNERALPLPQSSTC
Casein kinase I isoform alpha, sequence (P48729 whole entry, canonical isoform): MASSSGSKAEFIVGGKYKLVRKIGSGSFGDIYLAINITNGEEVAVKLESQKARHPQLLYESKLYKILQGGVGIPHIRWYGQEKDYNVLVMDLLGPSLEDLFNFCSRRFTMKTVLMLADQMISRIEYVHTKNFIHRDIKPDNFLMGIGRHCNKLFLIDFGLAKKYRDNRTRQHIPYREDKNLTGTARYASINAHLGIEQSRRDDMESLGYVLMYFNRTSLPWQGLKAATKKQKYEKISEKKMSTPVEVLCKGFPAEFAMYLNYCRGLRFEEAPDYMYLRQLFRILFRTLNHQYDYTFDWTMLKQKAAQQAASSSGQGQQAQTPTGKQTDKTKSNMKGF

**Q.** Which EC50 [1] does the source give for `COC(=O)CCC(=O)Nc1sc2c(c1C#N)CCCC2` here?
**A.** 14 µM (active)

**Q.** With `O=C1NC(=S)NC(=O)C1=Cc1cc2ccccc2[nH]1` as the molecule, how does the EC50 [2] read?
**A.** 6 µM (active)

**Q.** What about the IC50 (Aspartyl aminopeptidase) of the same molecule?
**A.** 1.67 µM (active)

**Q.** And the IC50 (Procathepsin L)?
**A.** > 59.6 µM (not active)

**Q.** For `COc1ccnc(N2CCN(C(=O)c3ccc(Cl)cc3)CC2)c1`, which AC50 (NIH3T3) is on record?
**A.** 96.1 µM (active)

**Q.** And the AC50 (Candida albicans)?
**A.** 30.4 µM (active)

**Q.** Which IC50 [3] does the source give for `CC(C)C(=O)Nc1ccc(-c2nc3cc(Cl)ccc3o2)cc1` here?
**A.** > 99 µM (inactive)

**Q.** What about the IC50 [4] of the same molecule?
**A.** 2.66 µM (active)

**Q.** And the IC50 (Caspase-3 [5])?
**A.** 23.7 µM (active)

**Q.** What about the IC50 [6] of the same molecule?
**A.** > 99 µM (inactive)

**Q.** With `O=C(NCC[S+]([O-])c1c(-c2ccc(F)cc2)[nH]c2ccccc12)C(=O)c1c[nH]c2ccccc12` (stereo unspecified) as the molecule, how does the IC50 [7] read?
**A.** 84 µM (active)

**Q.** And the IC50 [8]?
**A.** 88.8 µM (active)

**Q.** What about the IC50 [9] of the same molecule?
**A.** 94.5 µM (active)

**Q.** What about the IC50 (Caspase-3 [10]) of the same molecule?
**A.** 50.7 µM (active)

**Q.** With `NC(=O)c1ccccc1-c1ncc[nH]1` as the molecule, how does the Ki [11] read?
**A.** 50.1 µM (active)

**Q.** And the Ki [12]?
**A.** 63.1 µM (active)

**Q.** And the Ki [13]?
**A.** 79.4 µM (active)

**Q.** Which Ki [12] does the source give for `CC(C)(C)c1nc2c3ccc(F)cc3c3c(=O)[nH]ccc3c2[nH]1` here?
**A.** > 2.51 µM (inactive)

**Q.** What about the Ki [14] of the same molecule?
**A.** > 2.51 µM (inactive)

**Q.** And the Ki (Activin receptor type-1)?
**A.** > 3.98 µM (inactive)

**Q.** And the Ki [15]?
**A.** > 2.51 µM (inactive)

— ChEMBL document CHEMBL1201862, “PubChem BioAssay data set” (2004)
